Columns and labels:
[1] = target: EP300 (Homo sapiens, UniProt Q09472); assay: Histone acetyltransferase inhibitory activity against EP300 (Test Example 1); assay type: biochemical; conditions: 50 ng/mL EP300, 2 μM Acetyl-CoA, 100 nM Histone H4(1-25)-GSGSK (Biotin), 28° C. for 1 hour
Description: (§1) [Test Example 1] Evaluation of Histone
(§2) Acetyltransferase Inhibitory Activity against EP300 and CREBBP
(§3) 10 μL each of reaction solutions each containing a different concentration of the compound of each of Examples 1 to 108b (50 mM Tris-HCl (pH8.0), 0.1 mM EDTA, 1 mM dithiothreitol, 0.01% Tween-20, 0.01% Bovine serum albumin, 330 nM trichostatin A, 2 μM Acetyl-CoA (Sigma-Aldrich, #A2056), 100 nM Histone H4(1-25)-GSGSK (Biotin) (Anaspec, #65242-1), 1% dimethyl sulfoxide, 10 to 0.0006 μM of each compound, 50 ng/mL EP300 or 125 ng/mL CREBBP) was added to respective wells of a 384-well plate, and cultured at 28° C. for 1 hour. Thereafter, 5 μL of 30 μM Lys-CoA (Daiichi Sankyo Co., Ltd.) dissolved in LANCE detection buffer (Perkin Elmer Co., Ltd., #CR97-100) was added to each well. Furthermore, 5 μL of LANCE detection buffer containing 2 nM Eu-anti pan-Ac (Perkin Elmer Co., Ltd., #TRF0412) and 50 nM Sta-Ulight (Perkin Elmer Co., Ltd., #TRF0102) was added to each well, and the resultant was cultured at room temperature overnight. EnVision (Perkin Elmer Co., Ltd., Model 2104-0020) was used to measure ULight signals. […] EP300 and CREBBP were produced and purified by Daiichi Sankyo RD Novare Co., Ltd.

[2] = target: CREBBP (Homo sapiens, UniProt Q92793); assay: Histone acetyltransferase inhibitory activity against CREBBP (Test Example 1); assay type: biochemical; conditions: 125 ng/mL CREBBP, 2 μM Acetyl-CoA, 100 nM Histone H4(1-25)-GSGSK (Biotin), 28° C. for 1 hour
Description: as §1, §2, §3

[3] = system: H3K27Ac; assay: Intracellular H3K27Ac inhibitory activity in LK2 cells (Test Example 2); assay type: cell-based; conditions: Homo sapiens, LK-2, cultured with compound for 3 hours, read-out: Test Example 2 H3K27Ac Inhibition (LK2) IC50
Description: [Test Example 2] Evaluation of Intracellular H3K27Ac Inhibitory Activity
LK2 cells derived from human squamous cell lung cancer were seeded in a 96 well plate at 40000 cells/100 μL/well, and were cultured overnight at 37° C. in 5% CO2. The LK2 cells were purchased from Human Science Research Resources Bank. […] The supernatant was discarded, 4% paraformaldehyde was added thereto at 100 μL/well, and the resultant was allowed to stand still at room temperature for 15 minutes. The 4% paraformaldehyde was discarded, and the resultant was washed with PBS-T. A quenching buffer (PBS-T containing 1% H2O2) was added thereto at of 100 μL/well, and the resultant was allowed to stand still at room temperature for 10 minutes. The resultant was washed with PBS-T, a blocking buffer (StartingBlocK T20 (TBS) Blocking Buffer (Thermo […], #37543)) was added thereto at 200 μL/well, and the resultant was allowed to stand still at room temperature for 1 hour. The supernatant was discarded, Acetyl-Histone H3 (Lys27) (D5E4) XP (registered trademark) Rabbit mAb (cell Signaling, #8173) diluted with a blocking buffer was added thereto at 50 μL/well, and the resultant was allowed to stand still at 4° C. overnight. The resultant was washed with PBS-T, Anti-Rabbit IgG-HRP (Cell Signaling, #7074S) diluted with a blocking buffer was added thereto at 50 μL/well, and the resultant was cultured at room temperature for 1 hour. The resultant was washed with PBS-T, SuperSignal (registered trademark) ELISA Pico Chemiluminescent Substrate (Thermo […], #37069) was added thereto at 50 μL/well, and a signal was measured using EnVision.

[4] = system: LK2 cells; assay: Cell growth inhibitory activity, LK2 cells (Test Example 3); assay type: cell-based; conditions: Homo sapiens, LK-2, 72 h, cultured for 3 days, CellTiter-Glo
Description: (§4) [Test Example 3] Evaluation of Cell Growth Inhibitory Activity
(§5) As a culture medium for each cell, a 10% FBS supplemented RPMI 1640 medium (for LK2 cells and TE-8 cells derived from human esophageal cancer) was used. LK2 cells were purchased from Human Science Research Resources Bank, and TE-8 cells were purchased from Riken Cell Bank. The compound of each of Examples 1 to 108b was prepared by dilution with Freedom EVO 150 (Tecan Trading AG) (4-fold diluted, 10 stages, 10 mM to 38 nM). The resultant was added to respective wells of a 384-well plate in an amount of 40 nL/well using Echo 555 (Labcyte Inc.). The LK2 or TE-8 cells were seeded in the plate at 400 cells/40 μL/well (day 0), and were cultured for 3 days. On the day of addition of the compound (day 0) and 3 days after the addition of the compound (day 3), an ATP measurement reagent of CellTiter-Glo (registered trademark) 2.0 Assay (Promega Corporation, #G9242) was added to each well in an amount of 10 μL/well, and the amount of luminescence of each well was measured using EnVision. Based on the amount of luminescence (C0) on the day of the addition of the compound, and the amounts of luminescence of a compound non-addition group (C3) and a compound addition group (T3) obtained after the 3-day culture of the compound, a cell survival rate was calculated in accordance with the following expression: Cell survival rate (%)=(T3−C0)/(C3−C0)×100
(§6) A concentration (GI50 value) of each compound at which the growth of the TE-8 or LK-2 cells was inhibited by 50% was calculated by semilogarithmically plotting the cell survival rate at each concentration and the compound concentration.

[5] = system: TE-8 cells; assay: Cell growth inhibitory activity, TE-8 cells (Test Example 3); assay type: cell-based; conditions: Homo sapiens, 72 h, cultured for 3 days, CellTiter-Glo
Description: as §4, §5, §6

Chain of EP300 (Q09472 whole entry): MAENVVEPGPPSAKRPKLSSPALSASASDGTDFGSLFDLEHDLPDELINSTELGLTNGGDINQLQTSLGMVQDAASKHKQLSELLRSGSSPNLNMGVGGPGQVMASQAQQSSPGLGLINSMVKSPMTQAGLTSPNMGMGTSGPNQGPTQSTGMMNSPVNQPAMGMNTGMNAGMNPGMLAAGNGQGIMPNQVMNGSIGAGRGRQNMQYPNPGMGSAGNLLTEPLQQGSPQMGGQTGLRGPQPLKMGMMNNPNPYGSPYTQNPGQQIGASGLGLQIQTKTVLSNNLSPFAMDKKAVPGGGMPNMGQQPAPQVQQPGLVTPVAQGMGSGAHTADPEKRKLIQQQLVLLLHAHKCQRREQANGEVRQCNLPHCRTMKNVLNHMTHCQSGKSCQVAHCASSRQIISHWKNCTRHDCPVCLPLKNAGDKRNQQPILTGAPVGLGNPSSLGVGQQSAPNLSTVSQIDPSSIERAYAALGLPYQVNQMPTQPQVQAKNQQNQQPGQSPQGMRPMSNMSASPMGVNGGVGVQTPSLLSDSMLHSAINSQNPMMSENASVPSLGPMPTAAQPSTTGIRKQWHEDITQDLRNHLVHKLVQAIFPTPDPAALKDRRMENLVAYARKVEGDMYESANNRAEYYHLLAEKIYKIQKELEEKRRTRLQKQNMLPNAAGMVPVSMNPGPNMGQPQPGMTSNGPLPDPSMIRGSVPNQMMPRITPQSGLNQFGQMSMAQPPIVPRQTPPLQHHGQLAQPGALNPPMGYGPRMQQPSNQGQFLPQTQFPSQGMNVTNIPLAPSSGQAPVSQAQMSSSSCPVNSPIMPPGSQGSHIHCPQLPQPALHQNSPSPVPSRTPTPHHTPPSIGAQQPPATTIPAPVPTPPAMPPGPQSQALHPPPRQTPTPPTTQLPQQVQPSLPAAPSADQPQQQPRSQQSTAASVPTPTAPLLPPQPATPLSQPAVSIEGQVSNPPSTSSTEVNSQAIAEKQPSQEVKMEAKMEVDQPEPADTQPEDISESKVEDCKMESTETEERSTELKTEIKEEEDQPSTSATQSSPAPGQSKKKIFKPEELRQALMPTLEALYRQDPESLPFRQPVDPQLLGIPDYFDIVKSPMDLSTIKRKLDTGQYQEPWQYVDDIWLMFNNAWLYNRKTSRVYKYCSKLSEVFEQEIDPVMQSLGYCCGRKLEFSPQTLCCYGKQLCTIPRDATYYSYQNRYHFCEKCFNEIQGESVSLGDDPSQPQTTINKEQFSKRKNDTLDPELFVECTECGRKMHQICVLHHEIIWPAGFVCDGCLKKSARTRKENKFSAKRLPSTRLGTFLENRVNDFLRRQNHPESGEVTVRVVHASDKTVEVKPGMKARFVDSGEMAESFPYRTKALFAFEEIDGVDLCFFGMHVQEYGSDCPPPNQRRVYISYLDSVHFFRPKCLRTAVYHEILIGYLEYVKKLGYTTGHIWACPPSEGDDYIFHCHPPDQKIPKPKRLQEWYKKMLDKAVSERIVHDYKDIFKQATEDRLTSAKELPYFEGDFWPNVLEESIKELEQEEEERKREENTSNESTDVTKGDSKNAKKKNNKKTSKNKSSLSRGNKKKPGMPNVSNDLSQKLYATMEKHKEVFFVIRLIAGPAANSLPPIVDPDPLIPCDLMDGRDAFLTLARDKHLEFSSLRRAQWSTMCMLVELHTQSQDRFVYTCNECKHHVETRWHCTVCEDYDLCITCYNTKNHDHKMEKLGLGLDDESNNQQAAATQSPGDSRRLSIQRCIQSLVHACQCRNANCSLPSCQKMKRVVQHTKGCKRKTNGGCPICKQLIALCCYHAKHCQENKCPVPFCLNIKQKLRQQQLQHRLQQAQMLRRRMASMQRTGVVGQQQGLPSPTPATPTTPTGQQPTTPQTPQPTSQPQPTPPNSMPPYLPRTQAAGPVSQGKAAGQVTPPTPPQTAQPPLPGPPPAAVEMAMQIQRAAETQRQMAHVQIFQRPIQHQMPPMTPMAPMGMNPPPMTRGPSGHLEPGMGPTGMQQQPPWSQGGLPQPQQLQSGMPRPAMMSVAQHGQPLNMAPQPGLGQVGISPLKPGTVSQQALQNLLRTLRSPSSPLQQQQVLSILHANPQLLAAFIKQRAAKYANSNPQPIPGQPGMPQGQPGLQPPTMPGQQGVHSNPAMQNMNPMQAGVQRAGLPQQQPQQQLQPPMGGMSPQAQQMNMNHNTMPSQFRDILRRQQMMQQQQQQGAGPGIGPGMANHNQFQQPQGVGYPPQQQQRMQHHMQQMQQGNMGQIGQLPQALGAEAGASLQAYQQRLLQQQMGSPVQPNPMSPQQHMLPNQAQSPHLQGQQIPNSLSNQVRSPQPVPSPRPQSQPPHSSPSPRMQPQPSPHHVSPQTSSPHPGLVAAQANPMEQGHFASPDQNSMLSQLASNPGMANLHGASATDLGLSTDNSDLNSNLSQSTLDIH
Chain of CREBBP (Q92793 whole entry): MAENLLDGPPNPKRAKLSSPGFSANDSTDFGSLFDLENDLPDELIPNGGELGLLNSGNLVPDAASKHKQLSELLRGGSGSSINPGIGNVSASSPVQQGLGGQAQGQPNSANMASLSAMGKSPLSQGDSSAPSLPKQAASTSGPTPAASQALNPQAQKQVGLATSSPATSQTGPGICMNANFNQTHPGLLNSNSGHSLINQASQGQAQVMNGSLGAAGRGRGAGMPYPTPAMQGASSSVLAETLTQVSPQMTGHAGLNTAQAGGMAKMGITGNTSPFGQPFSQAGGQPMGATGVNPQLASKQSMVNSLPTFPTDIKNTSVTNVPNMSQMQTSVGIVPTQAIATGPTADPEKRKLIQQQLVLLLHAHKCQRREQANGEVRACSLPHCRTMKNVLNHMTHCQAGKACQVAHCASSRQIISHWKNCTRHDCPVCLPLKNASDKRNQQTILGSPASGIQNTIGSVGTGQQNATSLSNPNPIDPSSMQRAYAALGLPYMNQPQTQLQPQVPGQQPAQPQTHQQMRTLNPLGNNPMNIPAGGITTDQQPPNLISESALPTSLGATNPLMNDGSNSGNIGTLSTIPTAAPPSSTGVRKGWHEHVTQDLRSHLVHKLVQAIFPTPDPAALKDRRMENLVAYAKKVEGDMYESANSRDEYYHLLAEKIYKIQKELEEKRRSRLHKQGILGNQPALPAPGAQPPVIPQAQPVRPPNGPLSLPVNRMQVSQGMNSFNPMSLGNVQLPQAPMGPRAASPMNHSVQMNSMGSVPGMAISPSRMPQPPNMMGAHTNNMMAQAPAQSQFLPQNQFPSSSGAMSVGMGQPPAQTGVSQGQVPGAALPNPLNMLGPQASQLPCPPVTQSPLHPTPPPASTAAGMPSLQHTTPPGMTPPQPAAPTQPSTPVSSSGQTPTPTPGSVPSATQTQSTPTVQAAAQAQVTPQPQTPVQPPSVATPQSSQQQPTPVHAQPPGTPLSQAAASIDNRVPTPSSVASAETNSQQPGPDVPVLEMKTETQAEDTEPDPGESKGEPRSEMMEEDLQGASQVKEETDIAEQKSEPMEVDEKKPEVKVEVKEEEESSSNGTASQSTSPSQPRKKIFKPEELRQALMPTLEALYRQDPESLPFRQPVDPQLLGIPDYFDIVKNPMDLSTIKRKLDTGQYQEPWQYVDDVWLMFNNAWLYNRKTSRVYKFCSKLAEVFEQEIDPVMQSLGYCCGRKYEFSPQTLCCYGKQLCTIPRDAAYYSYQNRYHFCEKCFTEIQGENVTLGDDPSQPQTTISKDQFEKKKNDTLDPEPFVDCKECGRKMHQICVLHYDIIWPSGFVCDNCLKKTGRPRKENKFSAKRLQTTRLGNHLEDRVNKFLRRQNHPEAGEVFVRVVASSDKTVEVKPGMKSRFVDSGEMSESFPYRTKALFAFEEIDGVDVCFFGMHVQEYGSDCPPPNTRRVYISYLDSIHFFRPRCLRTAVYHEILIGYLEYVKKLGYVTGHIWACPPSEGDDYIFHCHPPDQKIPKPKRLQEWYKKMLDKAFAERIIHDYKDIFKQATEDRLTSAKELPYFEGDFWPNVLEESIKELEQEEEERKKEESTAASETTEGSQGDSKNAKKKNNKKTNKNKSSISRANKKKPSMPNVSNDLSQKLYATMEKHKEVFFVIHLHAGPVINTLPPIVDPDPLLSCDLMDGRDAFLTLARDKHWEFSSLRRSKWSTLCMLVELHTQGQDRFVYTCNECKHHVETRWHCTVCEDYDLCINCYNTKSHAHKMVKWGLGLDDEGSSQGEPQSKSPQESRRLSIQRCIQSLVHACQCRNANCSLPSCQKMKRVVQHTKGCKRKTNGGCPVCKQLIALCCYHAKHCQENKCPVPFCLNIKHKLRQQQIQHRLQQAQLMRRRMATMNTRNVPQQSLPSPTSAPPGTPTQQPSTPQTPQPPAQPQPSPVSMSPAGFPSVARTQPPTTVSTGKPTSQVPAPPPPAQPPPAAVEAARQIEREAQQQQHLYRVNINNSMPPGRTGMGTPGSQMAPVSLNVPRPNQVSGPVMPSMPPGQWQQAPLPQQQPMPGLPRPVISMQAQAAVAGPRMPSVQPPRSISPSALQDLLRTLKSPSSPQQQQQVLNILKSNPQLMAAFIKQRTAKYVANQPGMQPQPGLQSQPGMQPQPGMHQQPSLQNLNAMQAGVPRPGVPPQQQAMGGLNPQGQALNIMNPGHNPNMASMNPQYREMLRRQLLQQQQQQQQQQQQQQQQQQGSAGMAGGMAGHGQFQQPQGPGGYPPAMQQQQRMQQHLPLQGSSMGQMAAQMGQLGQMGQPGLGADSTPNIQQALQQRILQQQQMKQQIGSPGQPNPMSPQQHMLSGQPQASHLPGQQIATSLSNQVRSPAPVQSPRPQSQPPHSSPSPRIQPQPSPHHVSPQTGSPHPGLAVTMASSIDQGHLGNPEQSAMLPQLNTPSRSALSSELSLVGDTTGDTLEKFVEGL

Row | SMILES | IC50 [1] | IC50 [2] | IC50 [3] | GI50 [4] | GI50 [5]
1 | CS(=O)(=O)Nc1ccc(C2(C(=O)N3C[C@H](F)C[C@@H]3C(=O)Nc3ccc4[nH]ncc4n3)CCC(F)(F)CC2)cc1 [Example 102, (4R)-1-[(4,4-Difluoro-1-{4-[(methylsulfonyl)amino]phenyl}cyclohexyl)carbonyl]-4-fluoro-N-1H-pyrazolo[4,3-b]pyridin-5-yl-D-prolinamide] | 40 nM | 84 nM | 126 nM | 323 nM | 439 nM
2 | [2H]C([2H])([2H])N(C(=O)C1(c2ccc(OC)cc2)CCC(F)(F)CC1)[C@H](CO)C(=O)Nc1ccc2[nH]ccc2n1 [Example 77, 4,4-Difluoro-N-[(2R)-3-hydroxy-1-oxo-1-(1H-pyrrolo[3,2-b]pyridin-5-ylamino)propan-2-yl]-1-(4-methoxyphenyl)-N—(^2H3)methylcyclohexanecarboxamide] | 41 nM | 53 nM | 15 nM | 102 nM | 199 nM
3 | O=C(Nc1ccc2[nH]ncc2n1)[C@H]1C[C@@H](F)CN1C(=O)C1(c2ccc(OCC(F)(F)F)c(F)c2)CC(F)(F)C1 [Example 87] | 38 nM | 82 nM | 73 nM | 237 nM | 300 nM
4 | COc1ccc(C2(C(=O)N3C[C@H](F)C[C@@H]3C(=O)Nc3ccc4[nH]ncc4n3)CC(F)(F)C2)cc1 [Example 56, (4R)-1-{[3,3-Difluoro-1-(4-methoxyphenyl)cyclobutyl]carbonyl}-4-fluoro-N-1H-pyrazolo[4,3-b]pyridin-5-yl-D-prolinamide] | 24 nM | 64 nM | 20 nM | 98.8 nM | 88.3 nM
5 | O=C(Nc1ccc2[nH]ncc2n1)[C@H]1C[C@@H](F)CN1C(=O)C1(c2ccc(OC(F)F)cc2)CC(F)(F)C1 [Example 90] | 4 nM | 7 nM | 9 nM | 73.4 nM | 106 nM
6 | O=C(Nc1ccc2[nH]ncc2n1)[C@H]1C[C@@H](F)CN1C(=O)C1(c2ccc(C(=O)C(F)(F)F)cc2)CCCCC1 [Example 61, (4R)-4-Fluoro-N-1H-pyrazolo[4,3-b]pyridin-5-yl-1-({1-[4-(trifluoroacetyl)phenyl]cyclohexyl}carbonyl)-D-prolinamide] | 56 nM | 95 nM | 21 nM | 149 nM | 216 nM
7 | COc1ccc(C2(C(=O)N3CCC[C@@H]3C(=O)Nc3cccc4[nH]ncc34)CCCC2)cc1 [Example 1, N-1H-Indazol-4-yl-1-{[1-(4-methoxyphenyl)cyclopentyl]carbonyl}-D-prolinamide] | 176 nM | 218 nM |  | 2740 nM | 3410 nM
8 | CC(C)(O)c1ccc(C2(C(=O)N3C[C@H](F)C[C@@H]3C(=O)Nc3ccc4[nH]ncc4n3)CCCCC2)cc1 [Example 81a, (4R)-4-Fluoro-1-({1-[4-(2-hydroxypropan-2-yl)phenyl]cyclohexyl}carbonyl)-N-1H-pyrazolo[4,3-b]pyridin-5-yl-D-prolinamide] | 52 nM | 83 nM | 23 nM | 167 nM | 176 nM
9 | CS(=O)(=O)c1ccc(C2(C(=O)N3C[C@H](F)C[C@@H]3C(=O)Nc3ccc4[nH]ncc4c3C#N)CCC(F)(F)CC2)cc1 [Example 99, (4R)—N-(4-Cyano-1H-indazol-5-yl)-1-({4,4-difluoro-1-[4-(methylsulfonyl)phenyl]cyclohexyl}carbonyl)-4-fluoro-D-prolinamide] | 76 nM | 205 nM | 62 nM | 300 nM | 399 nM
10 | COCc1cc2nc(NC(=O)[C@H]3C[C@@H](F)CN3C(=O)C3(c4ccc(OC(F)F)cc4)CCC(F)(F)CC3)ccc2[nH]1 [Example 105, (4R)-1-({1-[4-(Difluoromethoxy)phenyl]-4,4-difluorocyclohexyl}carbonyl)-4-fluoro-N-[2-(methoxymethyl)-1H-pyrrolo[3,2-b]pyridin-5-yl]-D-prolinamide] | 50 nM | 78 nM | 192 nM | 753 nM | 989 nM
11 | COc1ccc(C2(C(=O)N3C[C@H](F)C[C@@H]3C(=O)Nc3ccc4cc[nH]c4n3)CCCCC2)cc1 [Example 52] | 21 nM | 51 nM | 28 nM | 254 nM | 439 nM
12 | COc1ccc(C2(C(=O)N(CCO)CC(=O)Nc3ccc4[nH]ncc4n3)CCC(F)(F)CC2)cc1 [Example 72, 4,4-Difluoro-N-(2-hydroxyethyl)-1-(4-methoxyphenyl)-N-[2-oxo-2-(1H-pyrazolo[4,3-b]pyridin-5-ylamino)ethyl]cyclohexanecarboxamide] | 177 nM | 182 nM | 1150 nM | > 10000 nM | > 10000 nM
13 | COc1ccc(C2(C(=O)N3C[C@H](F)C[C@@H]3C(=O)Nc3ccc4[nH]ncc4c3F)CCC(F)(F)CC2)cc1 [Example 100] | 67 nM | 95 nM | 243 nM | 660 nM | 1370 nM
14 | [2H]C([2H])([2H])Oc1ccc(C2(C(=O)N3C[C@H](F)C[C@@H]3C(=O)Nc3ccc4[nH]ncc4n3)CCC(F)(F)CC2)cc1 [Example 92, (4R)-1-[(4,4-Difluoro-1-{4-[(^2H3)methyloxy]phenyl}cyclohexyl)carbonyl]-4-fluoro-N-1H-pyrazolo[4,3-b]pyridin-5-yl-D-prolinamide] | 22 nM | 53 nM | 51 nM | 195 nM | 308 nM
15 | COc1ccc(C2(C(=O)N3C[C@H](F)C[C@@H]3C(=O)Nc3cccc4[nH]ncc34)CCCCO2)cc1 (single isomer, unassigned) [Example 44] | 48 nM | 48 nM | 246 nM | 589 nM | 1740 nM
16 | COc1ccc(C2(C(=O)N3CCC[C@@H]3C(=O)Nc3cccc4[nH]ncc34)CCC2)cc1 [Example 53, N-1H-Indazol-4-yl-1-{[1-(4-methoxyphenyl)cyclobutyl]carbonyl}-D-prolinamide] |  |  | 2080 nM | 2640 nM | 6060 nM
